Test results: patent US20020173538A1, “Method for sensitizing cancer cells to cancer therapies with a mevalonate-reducing compound” (priority 2000, published 2002)

What was measured:
Hep 3B/T2 cells [1] = assay: Tumor growth of Hep 3B/T2 cells in nude mice; type: in vivo, BALB/c-nu/nu nude mice
Description: The descriptive statistics were summarized as mean±STD. For statistical analysis, Student's t-test was used to determine significance of mean differences between groups.

Hep 3B cells = assay: Cell cycle determination by flow cytometry, Hep 3B; type: cell-based, human; details: cell line not given
Hep 3B/T2 cells [2] = assay: Tumor growth of Hep 3B/T2 cells in nude mice; type: in vivo, BALB/c-nu/nu nude mice; remark: listed apart in the source
[3] = MTT cell viability assay, Hep G2 cells (serum-free DMEM); details: human, Hep G2 cells, Cell viability
Description: Human hepatoma cell lines Hep G2 and Hep 3 were chosen as the in vitro models of hepatocytes and hepatoma, respectively.

[4] = Cycle 1 (Day 42), LOV 37.5 mg/kg/day p.o. days 28-34 and 49-55 and/or taxol 120 μg/kg/2 day i.p. day 36, 38, 40, 57, 59, 61
[5] = Cycle 2 (Day 63), LOV 37.5 mg/kg/day p.o. days 28-34 and 49-55 and/or taxol 120 μg/kg/2 day i.p. day 36, 38, 40, 57, 59, 61

CC[C@H](C)C(=O)O[C@H]1C[C@@H](C)C=C2C=C[C@H](C)[C@H](CC[C@@H]3C[C@@H](O)CC(=O)O3)[C@H]21 [Lovastatin, lovastatin]
Tumor size (Hep 3B/T2 cells [1]; [4]): 0.533 cm^3 | Tumor size (Hep 3B/T2 cells [1]; [5]): 1.263 cm^3 | percentage of inhibition of tumor size (Hep 3B/T2 cells [1]; [5]): (−49.5% | Tumor size (Hep 3B/T2 cells [1]; Day 15, LOV 75 mg/kg/day p.o. days 8-14 and/or taxol 120 μg/kg/day i.p. days 15-19, n = 3): 0.050 cm^3 | Tumor size (Hep 3B/T2 cells [1]; Day 20, LOV 75 mg/kg/day p.o. days 8-14 and/or taxol 120 μg/kg/day i.p. days 15-19, n = 3): 0.051 cm^3 | Tumor size (Hep 3B/T2 cells [1]; Day 23, LOV 75 mg/kg/day p.o. days 8-14 and/or taxol 120 μg/kg/day i.p. days 15-19, n = 3): 0.059 cm^3 | Tumor size (1 × w^2 × 0.52 cm^3) Day 28 (Hep 3B/T2 cells [1]; Day 28 after inoculation of 1 × 10^7 Hep 3B/T2 cells in male BALB/c-nu/nu nude mice, p.o. lovastatin 37.5 mg/kg/day (days 28-34, 49-55) and/or i.p. taxol 120 μg/kg/2 day (days 36, 38, 40, 57, 59, 61), mean ± SEM): 0.170 cm^3 | Tumor size (Hep 3B/T2 cells [1]; after two cycles: lovastatin fed 7 days, then paclitaxel injected 3 days (FIG. 38), mean±STD): 1.26±1.82 cm^3 | cell cycle arrest stage (Hep 3B cells): G0/G1 arrest | percentage of inhibition of tumor size (Hep 3B/T2 cells [2]; [4]): (−43.6% | Tumor size (Hep 3B/T2 cells [2]; Day 8, LOV 75 mg/kg/day p.o. days 8-14 and/or taxol 120 μg/kg/day i.p. days 15-19, n = 3): 0.111 cm^3 | Tumor size (Hep 3B/T2 cells [2]; Day 11, LOV 75 mg/kg/day p.o. days 8-14 and/or taxol 120 μg/kg/day i.p. days 15-19, n = 3): 0.048 cm^3 | Tumor size (Hep 3B/T2 cells [2]; Day 17, LOV 75 mg/kg/day p.o. days 8-14 and/or taxol 120 μg/kg/day i.p. days 15-19, n = 3): 0.050 cm^3 | Tumor size (Hep 3B/T2 cells [2]; Day 26, LOV 75 mg/kg/day p.o. days 8-14 and/or taxol 120 μg/kg/day i.p. days 15-19, n = 3): 0.121 cm^3 | Tumor size (Hep 3B/T2 cells [2]; Day 29, LOV 75 mg/kg/day p.o. days 8-14 and/or taxol 120 μg/kg/day i.p. days 15-19, n = 3): 0.154 cm^3 | Tumor size (1 × w^2 × 0.52 cm^3) Day 35 (Hep 3B/T2 cells [2]; Day 35 after inoculation, p.o. lovastatin 37.5 mg/kg/day (days 28-34, 49-55) and/or i.p. taxol 120 μg/kg/2 day (days 36, 38, 40, 57, 59, 61), mean ± SEM): 0.200 cm^3 | Tumor size (1 × w^2 × 0.52 cm^3) Day 38 (Hep 3B/T2 cells [2]; Day 38 after inoculation, p.o. lovastatin 37.5 mg/kg/day (days 28-34, 49-55) and/or i.p. taxol 120 μg/kg/2 day (days 36, 38, 40, 57, 59, 61), mean ± SEM): 0.301 cm^3 | Tumor size (1 × w^2 × 0.52 cm^3) Day 42 (Hep 3B/T2 cells [2]; Day 42 after inoculation, p.o. lovastatin 37.5 mg/kg/day (days 28-34, 49-55) and/or i.p. taxol 120 μg/kg/2 day (days 36, 38, 40, 57, 59, 61), mean ± SEM): 0.533 cm^3 | Tumor size (1 × w^2 × 0.52 cm^3) Day 49 (Hep 3B/T2 cells [2]; Day 49 after inoculation, p.o. lovastatin 37.5 mg/kg/day (days 28-34, 49-55) and/or i.p. taxol 120 μg/kg/2 day (days 36, 38, 40, 57, 59, 61), mean ± SEM): 0.665 cm^3 | Tumor size (1 × w^2 × 0.52 cm^3) Day 56 (Hep 3B/T2 cells [2]; Day 56 after inoculation, p.o. lovastatin 37.5 mg/kg/day (days 28-34, 49-55) and/or i.p. taxol 120 μg/kg/2 day (days 36, 38, 40, 57, 59, 61), mean ± SEM): 0.995 cm^3 | Tumor size (1 × w^2 × 0.52 cm^3) Day 63 (Hep 3B/T2 cells [2]; Day 63 after inoculation, p.o. lovastatin 37.5 mg/kg/day (days 28-34, 49-55) and/or i.p. taxol 120 μg/kg/2 day (days 36, 38, 40, 57, 59, 61), mean ± SEM): 1.263 cm^3 | Tumor size (Hep 3B/T2 cells [2]; end of one cycle of treatment, n=6 (FIG. 41)): 2.24±2.38 cm^3 | viability at 48 h, 1 μM ([3]; LOV 1 μM, 48 hr): 91.8 ± 2.1% | viability at 72 h, 1 μM ([3]; LOV 1 μM, 72 hr): 88.7 ± 1.3% | viability at 48 h, 2 μM ([3]; LOV 2 μM, 48 hr): 90.7 ± 1.5% | viability at 72 h, 2 μM ([3]; LOV 2 μM, 72 hr): 86.2 ± 1.9% | viability at 48 h, 5 μM ([3]; LOV 5 μM, 48 hr): 87.2 ± 3.1% | viability at 48 h, 5 μM ([3]; LOV 5 μM, 48 hr, Table 4): 87.2 ± 3.1% | viability at 72 h, 5 μM ([3]; LOV 5 μM, 72 hr): 80.9 ± 4.4% | viability at 72 h, 5 μM ([3]; LOV 5 μM, 72 hr, Table 4): 80.9 ± 4.4% | viability at 96 h, 5 μM ([3]; LOV 5 μM, 96 hr): 63.2 ± 2% | viability at 120 h, 5 µM ([3]; LOV 5 μM, 120 hr): 55.1 ± 5% | viability at 48 h, 10 μM ([3]; LOV 10 μM, 48 hr): 85.8 ± 2.7% | viability at 48 h, 10 μM ([3]; LOV 10 μM, 48 hr, Table 4): 85.8 ± 2.7% | viability at 72 h, 10 μM ([3]; LOV 10 μM, 72 hr): 78.7 ± 5.3% | viability at 72 h, 10 μM ([3]; LOV 10 μM, 72 hr, Table 4): 78.7 ± 5.3% | viability at 96 h, 10 μM ([3]; LOV 10 μM, 96 hr): 55.1 ± 5% | viability at 120 h, 10 µM ([3]; LOV 10 μM, 120 hr): 33.8 ± 3.8% | viability at 48 h, 20 μM ([3]; LOV 20 μM, 48 hr): 79.9 ± 2.7% | viability at 72 h, 20 μM ([3]; LOV 20 μM, 72 hr): 75.3 ± 4.2% | viability at 72 h, 50 μM ([3]; LOV 50 μM 48 hr, then LOV 50 μM without MVA another 24 hr): 57.8 ± 6.2% | viability at 96 h, 50 µM ([3]; LOV 50 μM 48 hr, then LOV 50 μM without MVA another 48 hr): 12.7 ± 2.6% | viability at 120 h, 50 µM ([3]; LOV 50 μM 48 hr, then LOV 50 μM without MVA another 72 hr): 4 ± 0.6% | viability at 48 h, 50 μM ([3]; LOV 50 μM, 48 hr): 73.1 ± 3.2% | viability at 72 h, 50 μM ([3]; LOV 50 μM, 72 hr): 58.2 ± 4.2% | viability at 72 h, 1 μM ([3]; lovastatin 1 μM, 72 hr): 88.7 ± 1.3% | viability at 72 h, 2 μM ([3]; lovastatin 2 μM, 72 hr): 86.2 ± 1.9% | viability at 48 h, 5 μM ([3]; lovastatin 5 μM 48 hr, then no CAPE 48 hr): 75.2 ± 1.6% | viability at 48 h, 5 μM ([3]; lovastatin 5 μM 48 hr, then no taxol 48 hr): 85.8 ± 4.5% | viability at 72 h, 5 μM ([3]; lovastatin 5 μM 72 hr, then no taxol 48 hr): 81.3 ± 3.8% | viability at 72 h, 5 μM ([3]; lovastatin 5 μM 72 hr, then no taxol 72 hr): 67.2 ± 0.5% | viability at 72 h, 5 μM ([3]; lovastatin 5 μM alone, 72 hr, Table 23): 66.8 ± 1.5% | viability at 72 h, 5 μM ([3]; lovastatin 5 μM, 72 hr): 80.9 ± 4.4% | viability at 48 h, 10 μM ([3]; lovastatin 10 μM 48 hr, then no CAO 48 hr): 75 ± 3.3% | viability at 48 h, 10 μM ([3]; lovastatin 10 μM 48 hr, then no CAPE 48 hr): 66.7 ± 2.4% | viability at 10 µM ([3]; lovastatin 10 μM 48 hr, then no GL-M1 48 hr): 76.9 ± 2.6% | viability at 48 h, 10 μM ([3]; lovastatin 10 μM 48 hr, then no taxol 48 hr): 69.1 ± 3.1% | viability at 72 h, 10 μM ([3]; lovastatin 10 μM 72 hr, then no taxol 48 hr): 54.7 ± 5.9% | viability at 72 hr, 10 μM ([3]; lovastatin 10 μM 72 hr, then no taxol 72 hr): 48 ± 2.9% | viability at 72 h, 10 μM ([3]; lovastatin 10 μM alone, 72 hr, Table 23): 57.8 ± 11.2% | viability at 96 h, 10 μM ([3]; lovastatin 10 μM alone, 96 hr, Table 10): 51.9 ± 4.4% | viability at 96 h, 10 μM ([3]; lovastatin 10 μM alone, 96 hr, Table 21): 52.4 ± 5.5%
